Data published in publication PMC11781080 (RSC Advances, 2025).

Assays:
[1] = system: Vero cells (normal kidney epithelial cell); assay: MTT cell viability assay, Vero cells; type: cell-based; conditions: read-out: IC50 Vero, 72 h, mean ± S.E.M., n = 3
[2] = system: A549 cells (EGFR wild-type non-small-cell lung cancer); assay: MTT cell viability assay, A549 cells; type: cell-based; conditions: Homo sapiens, A549, 72 h, read-out: IC50 A549

CN(C)C/C=C/C(=O)Nc1cc2c(Nc3ccc(F)c(Cl)c3)ncnc2cc1O[C@H]1CCOC1 [Afatinib] was tested, and the IC50 [1] was 5.77 ± 1.59 µM and the IC50 [2] was 13.1 ± 0.8 µM.
